Test results as given in patent EP0648766A1, “AGENT ACTING ON THE CENTRAL NERVOUS SYSTEM, METHOD FOR ITS PREPARATION AND PHARMACEUTICAL COMPOSITIONS CONTAINING SUCH AGENT” (VITA-INVEST, S.A., priority 1993, dated 1994).
Like-named read-outs stand apart in the source and are kept apart here.

Experiments:
[1] = tested on: rats; assay: Anxiolytic activity, social interaction test (method of File); format: in vivo
Description: 2) Anxiolytic activity. Social interaction test.
This consists in placing a pair of rats in an unknown and strongly lit environment.

[2] = Anxiolytic activity, two-compartment box (method of Crawley); format: in vivo
Excerpt: 1) Anxiolytic activity. Two-compartment box.
The method used is that of Crawley, J.N.; Pharmacol. Biochem. Behav., 15, 695-699 (1981). This consists of a two-compartment box with different lighting, counting the time of stay and number of entries into the light and dark compartments, the number of lifting movements and the number of lines crossed in each of the two compartments, before and after treatment with the products under study.

[3] = tested on: mouse; assay: Antidepressive activity, desperate behaviour induced by enforced swimming, Porsolt test; format: in vivo; details: mice
Description: 3) Antidepressive activity. Desperate behaviour induced in mouse by enforced swimming. Porsolt test.
This consists in subjecting the mice to a swimming test by placing them inside transparent cylinders of set dimensions, with water at a temperature of 20-22°C. After a prior detection test, the time the animal takes to adopt an immobile posture is determined, recording the duration of immobility. The average immobility time of the treated groups is compared with that of the control group.

[4] = tested on: rats; assay: Effect on learning and memory, passive avoidance test; format: in vivo
Excerpt: 4) Effect on learning and memory. Passive avoidance test on rats.
Use is made of the method of Chugh and colls., Eur. J. Pharmacol., 203, 121-123 (1991). This consists in placing the rats in a two-compartment (light and dark) box separated by a door which opens and closes as the experimenter wishes; the floor of both cages is constructed using a metal grid electrifiable as desired in terms of current and duration. The animal is conditioned to avoid the dark zone, and the time of latency in the exposures following the one in which the animals receive the electric shock of 0.2 mA and duration of 3 seconds is determined.

[5] = Acute toxicity; set-up: species or system mice; details: mouse, in vivo
Description: The acute toxicity is determined by different vias in mice.

[6] = ip, mice, i.p., read-out: APPROXIMATE DL₅₀
[7] = 0,01 mg/kg i.p., Excipient 158 ± 15

Structure (SMILES): O=C1CC2(CCCC2)CC(=O)N1CCCCN1CCN(c2ncccn2)CC1 [BUSPIRONA]
- SOCIAL INTERACTION TIME (sec ± E.S.) ([1]; 0,25 mg/kg i.p., Excipient 158 ± 15): 287 ± 19 s
- SOCIAL INTERACTION TIME (sec ± E.S.) ([1]; 1 mg/kg i.p., Excipient 158 ± 15): 275 ± 14 s

Structure (SMILES): O=Cc1c(N2CCN(Cc3ccc4c(c3)OCO4)CC2)[nH]c2ccccc12 [COMPOUND I, 3-[2-(1-(4'-piperonylpiperazinyl))indolyl]-carboxaldehyde]
- % TIME IN LIGHT COMPARTMENT (X ± E.S.) ([2]; 2 µg/kg i.p., N 11, same group PRE-EXPOSURE 10,8 ± 3,6): 14,6 ± 7,2%
- % TIME IN LIGHT COMPARTMENT (X ± E.S.) ([2]; 4 µg/kg v.o., N 10, same group PRE-EXPOSURE 14,5 ± 4,0): 20,0 ± 5,5%
- % TIME IN LIGHT COMPARTMENT (X ± E.S.) ([2]; 8 µg/kg v.o., N 11, same group PRE-EXPOSURE 24,9 ± 6,8): 28,6 ± 8,0%
- % TIME IN LIGHT COMPARTMENT (X ± E.S.) ([2]; 20 µg/kg i.p., N 11, same group PRE-EXPOSURE 10,7 ± 3,5): 12,7 ± 6,5%
- % TIME IN LIGHT COMPARTMENT (X ± E.S.) ([2]; 50 µg/kg i.p., N 20, same group PRE-EXPOSURE 22,9 ± 3,1): 15,4 ± 4,4%
- % TIME IN LIGHT COMPARTMENT (X ± E.S.) ([2]; 100 µg/kg i.p., N 20, same group PRE-EXPOSURE 15,0 ± 2,0): 8,6 ± 3,2%
- SOCIAL INTERACTION TIME (sec ± E.S.) ([1]; 0,5 mg/kg i.p., Excipient 158 ± 15): 235 ± 12 s
- SOCIAL INTERACTION TIME (sec ± E.S.) ([1]; 2 mg/kg v.o., Excipient i.p 158 ± 15): 262 ± 17 s
- IMMOBILITY TIME (sec ± E.S.) ([3]; 0,1 mg/kg i.p., Excipient 89,70 ± 21,7): 49,4 ± 17,8 sec
- IMMOBILITY TIME (sec ± E.S.) ([3]; 0,5 mg/kg i.p., Excipient 89,70 ± 21,7): 31,60 ± 10,2 sec
- IMMOBILITY TIME (sec ± E.S.) ([3]; 1 mg/kg i.p., Excipient 132,53 ± 8,70): 59,80 ± 11,00 sec
- IMMOBILITY TIME (sec ± E.S.) ([3]; 10 mg/kg i.p., Excipient 132,53 ± 8,70): 136,60 ± 11,26 sec
- 2nd LATENCY (10'), average ± E.S. ([4]; 1 mg/kg i.p., N 7, Excipient 5,7 ± 1,5): 3,3 ± 1,4
- 2nd LATENCY (10'), median ([4]; 1 mg/kg i.p., N 7, Excipient 6): 4
- 1st LATENCY, average ± E.S. ([4]; 1 mg/kg i.p., N 7, Excipient 7,1 ± 1,6): 2,7 ± 0,7
- 1st LATENCY, median ([4]; 1 mg/kg i.p., N 7, Excipient 9): 3
- 3rd LATENCY -(24 h), average ± E.S. ([4]; 1 mg/kg i.p., N 7, Excipient 10,7 ± 4,8): 23,6 ± 9,0
- 3rd LATENCY -(24 h), median ([4]; 1 mg/kg i.p., N 7, Excipient 21): 42
- LD50 [5, 6]: > 500 mg/kg
- LD50 ([5]; po, mice, v.o., read-out: APPROXIMATE DL₅₀): > 500 mg/kg

Structure (SMILES): CN1C(=O)CN=C(c2ccccc2)c2cc(Cl)ccc21 [DIAZEPAM]
- SOCIAL I[…] (sec ± E.S.) ([1]; 2 mg/kg i.p., Excipient 158 ± 15): 257 ± 22 s

Structure (SMILES): CN1C2CCCC1CC(NC(=O)c1nn(C)c3ccccc13)C2 (stereo not shown) [GRANISETRON]
- 2nd LATENCY (10'), average ± E.S. ([4]; 0,1 mg/kg i.p., N 6, Excipient 5,7 ± 1,5): 8,5 ± 1,8
- 2nd LATENCY (10'), median ([4]; 0,1 mg/kg i.p., N 6, Excipient 6): 11
- 1st LATENCY, average ± E.S. ([4]; 0,1 mg/kg i.p., N 6, Excipient 7,1 ± 1,6): 6,3 ± 1,1
- 1st LATENCY, median ([4]; 0,1 mg/kg i.p., N 6, Excipient 9): 8
- 3rd LATENCY -(24 h), average ± E.S. ([4]; 0,1 mg/kg i.p., N 6, Excipient 10,7 ± 4,8): 19,0 ± 6,5
- 3rd LATENCY -(24 h), median ([4]; 0,1 mg/kg i.p., N 6, Excipient 21): 21
- LD50 [5, 6]: 89 mg/kg

Structure (SMILES): Cc1nccn1CC1CCc2c(c3ccccc3n2C)C1=O (stereo not shown) [ONDANSETRON]
- % TIME IN LIGHT COMPARTMENT (X ± E.S.) ([2]; 2µg/kg i.p., N 10, same group PRE-EXPOSURE 16,6 ± 3,3): 12,3 ± 2,7%
- % TIME IN LIGHT COMPARTMENT (X ± E.S.) ([2]; 4 µg/kg v.o., N 10, same group PRE-EXPOSURE 21,1 ± 8,0): 18,7 ± 5,1%
- SOCIAL INTERACTION TIME (sec ± E.S.) [1, 7]: 247 ± 22 s
- SOCIAL INTERACTION TIME (sec ± E.S.) ([1]; 0,05 mg/kg i.p., Excipient 158 ± 15): 219 ± 18 s
- LD50 ([5]; ip): 7.5 mg/kg

Structure (SMILES): CN1[C@@H]2CC[C@H]1C[C@@H](OC(=O)c1c[nH]c3ccccc13)C2 [TROPISETRON]
- % TIME IN LIGHT COMPARTMENT (X ± E.S.) ([2]; 10 µg/kg i.p., N 20, same group PRE-EXPOSURE 12,4 ± 3,0): 12,3 ± 3,0%
- SOCIAL INTERACTION TIME (sec ± E.S.) [1, 7]: 253 ± 10 s
- SOCIAL INTERACTION TIME (sec ± E.S.) ([1]; 0,1 mg/kg i.p., Excipient 158 ± 15): 231 ± 26 s

Structure (SMILES): COc1cc(N)c(Cl)cc1C(=O)NC1CN2CCC1CC2 (stereo not shown) [ZACOPRIDE]
- LD50 [5, 6]: 135 mg/kg

Structure (SMILES): CN(C)CCCN1c2ccccc2CCc2ccccc21 [[…]]
- […] (sec ± E.S.) ([3]; 30 mg/kg i.p., Excipient 132,53 ± 8,70): 71,72 ± 9,82 sec
